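Each compound was tested at five concentrations against cells in 96-well plates for 48 hours. The concentration for 50% growth inhibition is given as GI50.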 Activity calls are given as the source filed them. Cut-off read from the data, not from the text of the source: active = GI50 up to about 1.1 µM and inactive = higher.
Columns and labels:
Assay in all cases: NCI tumour cell line growth inhibition, 48 h
SW-620 = system: SW-620
ACHN = system: ACHN
UACC-62 = system: UACC-62
OVCAR-8 = system: OVCAR-8
LOX IMVI = system: LOX IMVI
KM12 = system: KM12
HCT-116 = system: HCT-116
SF-539 = system: SF-539
NCI-H226 = system: NCI-H226
UACC-257 = system: UACC-257
NCI-H23 = system: NCI-H23
HCC 2998 = system: HCC 2998
MCF7 = system: MCF7
Malme-3M = system: Malme-3M
UO-31 = system: UO-31
U-251 = system: U-251
IGROV-1 = system: IGROV-1
SNB-19 = system: SNB-19
TK-10 = system: TK-10
NCI-H522 = system: NCI-H522

Row | SMILES | GI50 (SW-620) | GI50 (ACHN) | GI50 (UACC-62) | GI50 (OVCAR-8) | GI50 (LOX IMVI) | GI50 (KM12) | GI50 (HCT-116) | GI50 (SF-539) | GI50 (NCI-H226) | GI50 (UACC-257) | GI50 (NCI-H23) | GI50 (HCC 2998) | GI50 (MCF7) | GI50 (Malme-3M) | GI50 (UO-31) | GI50 (U-251) | GI50 (IGROV-1) | GI50 (SNB-19) | GI50 (TK-10) | GI50 (NCI-H522)
1 | CC1=CC(c2ccccc2)n2c(nc3cc4ccccc4cc32)N1 (configuration not stated) | > 100 µM (inactive) | > 100 µM (inactive) | > 100 µM (inactive) | > 100 µM (inactive) | > 100 µM (inactive) | > 100 µM (inactive) | > 100 µM (inactive) | > 100 µM (inactive) | > 100 µM (inactive) | > 100 µM (inactive) | > 100 µM (inactive) | > 100 µM (inactive) | > 100 µM (inactive) | > 100 µM (inactive) | > 100 µM (inactive) | > 100 µM (inactive) | > 100 µM (inactive) | > 100 µM (inactive) | > 100 µM (inactive) | 
2 | c1cn[nH]c1 [PYRAZOLE] | > 10 µM (inactive) | > 10 µM (inactive) | > 10 µM (inactive) | > 10 µM (inactive) | > 10 µM (inactive) | > 10 µM (inactive) | > 10 µM (inactive) | > 10 µM (inactive) | > 10 µM (inactive) |  | > 10 µM (inactive) | > 10 µM (inactive) | > 10 µM (inactive) | > 10 µM (inactive) | > 10 µM (inactive) | > 10 µM (inactive) | > 10 µM (inactive) | > 10 µM (inactive) | > 10 µM (inactive) | 
3 | CC1S/C(=N\N=C2/C(=O)Nc3ccc(Br)cc32)N(C2CCCCC2)C1=O (configuration not stated) | 11.7 µM (inactive) | 1.16 µM (inactive) | 2.01 µM (inactive) |  | 3.62 µM (inactive) | 4.65 µM (inactive) | 2.24 µM (inactive) | 3.66 µM (inactive) | 4.03 µM (inactive) | 21 µM (inactive) | 4.42 µM (inactive) | 4.08 µM (inactive) | 12.5 µM (inactive) | 9.23 µM (inactive) | 1.06 µM (active) | 2.54 µM (inactive) |  | 4.06 µM (inactive) | 1.15 µM (inactive) | 
4 | O=C(NNc1cn[nH]c(=O)n1)c1cccc2nc3ccccc3nc12 | > 100 µM (inactive) | 23.3 µM (inactive) | 61.5 µM (inactive) | 39.3 µM (inactive) | 38.8 µM (inactive) | > 100 µM (inactive) | > 100 µM (inactive) | 46.7 µM (inactive) | 82.2 µM (inactive) | > 100 µM (inactive) | 45.6 µM (inactive) | 25.1 µM (inactive) | > 100 µM (inactive) | 47.5 µM (inactive) |  | 27.9 µM (inactive) | 38.2 µM (inactive) | 74 µM (inactive) | 24.3 µM (inactive) | 
5 | C[C@H](CC[C@@H](O)C(C)(C)O)[C@H]1CC[C@@]2(C)[C@@H]3CC=C4[C@@H](CC[C@H](O)C4(C)C)[C@]3(C)C(=O)C[C@]12C [BRYODULCOSIGENIN] | 22.8 µM (inactive) | > 50 µM (inactive) |  | 27.4 µM (inactive) | 45.9 µM (inactive) | 15.1 µM (inactive) | 22 µM (inactive) | > 50 µM (inactive) | 20.8 µM (inactive) | 49 µM (inactive) | 26.6 µM (inactive) |  | 3.05 µM (inactive) | > 50 µM (inactive) | 34 µM (inactive) | 38.5 µM (inactive) | > 50 µM (inactive) | > 50 µM (inactive) | > 50 µM (inactive) | 31.7 µM (inactive)
6 | c1cc(CNCCN2CCNCC2)ccn1 | > 100 µM (inactive) | > 100 µM (inactive) | > 100 µM (inactive) | > 100 µM (inactive) | > 100 µM (inactive) | > 100 µM (inactive) | > 100 µM (inactive) | > 100 µM (inactive) | > 100 µM (inactive) | > 100 µM (inactive) | > 100 µM (inactive) |  | > 100 µM (inactive) | > 100 µM (inactive) | > 100 µM (inactive) | > 100 µM (inactive) | > 100 µM (inactive) | > 100 µM (inactive) | 20.3 µM (inactive) | > 100 µM (inactive)
7 | CC(C)(C)OC(=O)[C@@H]1ON2O[C@H](OC3CCCC3(c3ccccc3)c3ccccc3)C[C@H]3OC(=O)[C@@H]1[C@H]32 (some centres not stated) | 85.7 µM (inactive) | > 100 µM (inactive) | 98.9 µM (inactive) |  | 31.4 µM (inactive) | 36.1 µM (inactive) | 32 µM (inactive) | > 100 µM (inactive) | 36.9 µM (inactive) | 71.3 µM (inactive) | 46.5 µM (inactive) |  | 70 µM (inactive) |  | 71.9 µM (inactive) | > 100 µM (inactive) | 38.7 µM (inactive) | > 100 µM (inactive) | > 100 µM (inactive) | 32.2 µM (inactive)
8 | CN1C(=O)N/C(=C\c2ccc(S(=O)(=O)N/N=C/c3ccccc3)cc2)C1=O | 91.6 µM (inactive) | 24.7 µM (inactive) | 28.9 µM (inactive) | 28.5 µM (inactive) | 18.1 µM (inactive) | 15.7 µM (inactive) | 23.8 µM (inactive) |  | 74.6 µM (inactive) | 18.4 µM (inactive) | 23.3 µM (inactive) | 32.1 µM (inactive) | 19.1 µM (inactive) | 45.5 µM (inactive) | 15.5 µM (inactive) | 40.6 µM (inactive) | 42.1 µM (inactive) | 62.2 µM (inactive) | 31 µM (inactive) | 
9 | CO/C(=N\N=C\c1ccc(OC)cc1OC)c1ccncc1 | > 10 µM (inactive) | > 10 µM (inactive) |  | > 10 µM (inactive) | > 10 µM (inactive) | > 10 µM (inactive) | > 10 µM (inactive) | > 10 µM (inactive) | > 10 µM (inactive) |  | > 10 µM (inactive) | > 10 µM (inactive) | > 10 µM (inactive) | > 10 µM (inactive) | > 10 µM (inactive) | > 10 µM (inactive) | > 10 µM (inactive) | > 10 µM (inactive) | > 10 µM (inactive) | 
10 | O=C(O)c1cc(NC2=C(Cl)C(=O)c3c(O)ccc(O)c3C2=O)ccc1O | > 10 µM (inactive) | > 10 µM (inactive) | > 10 µM (inactive) | > 10 µM (inactive) | > 10 µM (inactive) | > 10 µM (inactive) | > 10 µM (inactive) | > 10 µM (inactive) | > 10 µM (inactive) | > 10 µM (inactive) | > 10 µM (inactive) | > 10 µM (inactive) | > 10 µM (inactive) | > 10 µM (inactive) | > 10 µM (inactive) | > 10 µM (inactive) | > 10 µM (inactive) | > 10 µM (inactive) | > 10 µM (inactive) | 
11 | Cc1ccc(C)n2c1nc1ccc3ccccc3c12 | > 100 µM (inactive) | > 100 µM (inactive) | 53.2 µM (inactive) | > 100 µM (inactive) |  | > 100 µM (inactive) |  | > 100 µM (inactive) | > 100 µM (inactive) | > 100 µM (inactive) | > 100 µM (inactive) | > 100 µM (inactive) | 26.8 µM (inactive) | > 100 µM (inactive) | 61 µM (inactive) | > 100 µM (inactive) | > 100 µM (inactive) | > 100 µM (inactive) | > 100 µM (inactive) | 

Source: ChEMBL document CHEMBL1201862, “PubChem BioAssay data set” (2004)
